Values of other authors as cited in US20240197636A1, “TISSUE-SPECIFIC NUCLEIC ACID DELIVERY BY MIXED CATIONIC LIPID PARTICLES” (OMEGA THERAPEUTICS, INC., priority 2021, published 2024).

- pKa: 6.4
SMILES: CCCCC/C=C\C/C=C\CCCCCCCCC(CCCCCCCC/C=C\C/C=C\CCCCC)OC(=O)CCCN(C)C [MC3, (6Z,9Z,28Z,31Z)-heptatriaconta-6,9,28,31-tetraen-19-yl 4-(dimethylamino) butanoate]
